Data from paper PMC12333940, “A prometabolite strategy inhibits cardiometabolic disease in an ApoE^–/– murine model of atherosclerosis” (JCI Insight, 2025).
Where “and” joins values, the source holds several entries; their conditions need not be identical. Equal entries are not always repeated.

Legend:
[1] = LC-MS/MS of free butyrate in solution of fresh and aged SerBut
Method: To investigate stability, we repeated the experiment with SerBut in FBS-supplemented complete media stored for 1 month at 37°C (Figure 1B).
(B) LC-MS/MS analysis of free butyrate in solution of aged SerBut (incubated at 37°C in FBS-supplemented media for 1 month) and freshly dissolved SerBut and NaBut. (C) NF-κB activity of RAW Blue reporter cells upon treatment with the indicated concentrations of SerBut or NaBut for 24 hours followed by stimulation with 200 ng/mL LPS for 6 hours. (D–J) RAW 264.7 cells treated for 24 hours with the indicated concentrations of SerBut or NaBut followed by stimulation with 200 ng/mL LPS for 6 hours. (D–E) Mean fluorescence intensity (MFI) of iNOS^+ or CD80^+ RAW 264.7 cells analyzed by flow cytometry. (F–J) Cytokine concentrations in the cell culture supernatant of RAW 264.7 cells. “x” indicates untreated group. In A, n = 3 per group representing technical replicates. In B, n = 3 freshly prepared samples per 2 distinct experiments pooled for aged SerBut and NaBut groups, while fresh the SerBut group represents a single experiment. One sample in the aged SerBut group and 2 samples in the NaBut group were lost due to filtering malfunctions or LC-MS/MS autosampling malfunctions. In C, n = 6 technical replicates. Data represent mean ± SEM. […] In A, 2-way ANOVA was performed.
Samples were prepared and derivatized as described previously ([28]). Stock solutions were prepared in water/acetonitrile (ACN) (1:1 v/v): 3-nitrophenylhydrazine (NPH), and 1-ethyl-3-(3-dimethylaminopropyl)carbodiimide (EDC) (in 1% pyridine). The internal standard, 4-methylvaleric acid, was added. Samples were mixed with NPH and EDC stocks at a 1:1:1 volume ratio. The mixture was heated in a heating block at 60°C for 30 minutes. Samples were filtered through 0.22 μm filters and stored at 4°C before analysis.
Both derivatized butyrate-NPH and 4-methylvaleric-NPH were detected in negative mode. Column: Thermo Fisher Scientific C18 4.6 × 50 mm, 1.8 μm particle size, at room temperature. Mobile phase A: water with 0.1% v/v formic acid. Mobile phase B: ACN with 0.1% v/v formic acid. Injection volume: 5.0 μL. Flow rate: 0.5 mL/min. […] The MS conditions were optimized using pure butyrate-NPH or 4-methylvaleric-NPH at 1 mM. […] The ratio between MRM of butyrate and 4-methylvaleric acid was used to quantify butyrate concentration.

ApoE^–/– mice on an HFD [2] = assay: Flow cytometry of the aorta; assay type: in vivo, mouse; set-up: Aorta Flow CD11b+F480+ / Aorta Flow CD11b+Ly6Chi: unit not given here; settings: for CD45^+ total leukocytes, CD11b^+ monocytes and CCR2^+CD11b^+ monocytes in the aorta: compared with control groups; for CD11c^+MHCII^hi dendritic cells, CD11b^+F480^+ macrophages and CD19^+ B cells in the aorta: compared with water controls; for Aorta Flow B cell Count / Aorta Flow CD11b+F480+ / Aorta Flow CD11b+Ly6Chi / Aorta Flow T Cell Count / Aorta Flow CD11b+ Count / Aorta Flow CD11b+CCR2+ / Aorta Flow CD45 Count / Aorta Flow CD11c+MHCIIhi: individual mice; for Aorta Flow CD11b+ Count / Aorta Flow CD11b+CCR2+ / Aorta Flow CD45 Count: experiment 2; for Aorta Flow CD11c+MHCIIhi: cell count
Excerpt: SerBut water was pH adjusted using 10 M NaOH to a final pH of 7.4. […] After 6 weeks, mice were euthanized. […] The liver was harvested and part was homogenized in tissue protein extraction reagent buffer (Invitrogen, 78510) supplemented with protease inhibitor mini tablets (Thermo Fisher Scientific, PIA32955) for Western blotting and qPCR. […] The heart with the ascending and descending aorta to the diaphragm was harvested. The perivascular adipose tissue was carefully removed by microdissection while keeping the adventitia intact. […] After 45 minutes of digestion at 37°C with orbital shaking, aortas were passed through a 70 μm cell strainer, rinsed, pelleted, and plated into a U-bottom 96-well microplate for staining. […] Cells were washed in PBS supplemented with 2% FBS (FACS buffer) and stained for 30 minutes on ice with surface antibodies at a 1:200 dilution in a 1:1 mixture of FACS buffer and Brilliant Stain Buffer (BD Biosciences). Cells were washed with FACS buffer and PBS and fixed with 2% paraformaldehyde on ice for 20 minutes. Cells were washed twice with PBS and resuspended in FACS buffer. Precision count beads (BioLegend) were used to determine absolute cell counts. In this study, antibodies used included those against CD16/CD32 (BioLegend, clone 93, catalog 101302), CCR2 (PE; […] BD Biosciences, clone HL3, catalog 558079, BD Biosciences), […] (APC; […] BD Biosciences, clone 30-F11, catalog 564225), F4/80 (BUV496; BD Biosciences, clone T45-2342, catalog 750644), […].5; BioLegend, clone M5/114.15.2, catalog 107626), Ly-6C (APC-Cy7; […]

ApoE^–/– mice on an HFD [3] = assay: Blood chemical analysis of plasma; assay type: in vivo, mouse; set-up: Lipase / ALT / Altherogenic Lipids (Chol-HDL) / HDL-C / LDL-C: unit not given here; settings: for LDL-C as a fraction of total cholesterol: 150 mM in drinking water, HFD; for Altherogenic Lipids (Chol-HDL) / HDL-C / LDL-C: Blood Chemistry, experiments 1 and 2; for Altherogenic Lipids (Chol-HDL) / HDL-C: 6wk; for Altherogenic Lipids (Chol-HDL) / HDL-C / LDL-C / ALT: individual mice; for ALT: 150 mM in drinking water ad libitum with HFD
Method: SerBut water was pH adjusted using 10 M NaOH to a final pH of 7.4. […] After 6 weeks, mice were euthanized. […] The liver was harvested and part was homogenized in tissue protein extraction reagent buffer (Invitrogen, 78510) supplemented with protease inhibitor mini tablets (Thermo Fisher Scientific, PIA32955) for Western blotting and qPCR. […] Blood chemical analysis was performed on an Alfa […] Chemistry Analyzer. Reagent kits from Alfa Wasserman were used according to manufacturer's instructions to analyze plasma: lipase (catalog SA1045), HDL-C (catalog SA2038, LDL-C (catalog SA1040), AST (catalog SA1053), ALT (catalog SA1052). A LEGENDPlex was utilized to analyze the concentrations of inflammatory cytokines (BioLegend).

LDL-R = assay: Western blot of LDL-R in liver; assay type: in vivo, mouse; settings: for LDL-R protein levels in liver: 6 weeks; for LDL-R Relative Expression: western Blot quantifiation, individual mice
Excerpt: SerBut water was pH adjusted using 10 M NaOH to a final pH of 7.4. […] After 6 weeks, mice were euthanized. […] The liver was harvested and part was homogenized in tissue protein extraction reagent buffer (Invitrogen, 78510) supplemented with protease inhibitor mini tablets (Thermo Fisher Scientific, PIA32955) for Western blotting and qPCR.

Row | SMILES | Butyrate Release by LCMS-MS (free butyrate) ([1]; freshly dissolved) | CD45^+ total leukocytes, CD11b^+ monocytes and CCR2^+CD11b^+ monocytes in the aorta (ApoE^–/– mice on an HFD [2]; 6 weeks) | CD11c^+MHCII^hi dendritic cells, CD11b^+F480^+ macrophages and CD19^+ B cells in the aorta (ApoE^–/– mice on an HFD [2]; 6 weeks) | Aorta Flow B cell Count (ApoE^–/– mice on an HFD [2]) | Aorta Flow CD11b+F480+ (ApoE^–/– mice on an HFD [2]) | Aorta Flow CD11b+Ly6Chi (ApoE^–/– mice on an HFD [2]) | Aorta Flow T Cell Count (ApoE^–/– mice on an HFD [2]) | Aorta Flow CD11b+ Count (ApoE^–/– mice on an HFD [2]) | Aorta Flow CD11b+CCR2+ (ApoE^–/– mice on an HFD [2]) | Aorta Flow CD45 Count (ApoE^–/– mice on an HFD [2]) | Aorta Flow CD11c+MHCIIhi (ApoE^–/– mice on an HFD [2]) | lipase in the plasma (ApoE^–/– mice on an HFD [3]; 6 weeks) | total cholesterol or triglycerides in the plasma (ApoE^–/– mice on an HFD [3]; 6 weeks) | LDL-C as a fraction of total cholesterol (ApoE^–/– mice on an HFD [3]; 6 weeks) | Altherogenic Lipids (Chol-HDL) (ApoE^–/– mice on an HFD [3]) | HDL-C (ApoE^–/– mice on an HFD [3]) | LDL-C (ApoE^–/– mice on an HFD [3]) | ALT (ApoE^–/– mice on an HFD [3]; plasma at 6 weeks) | LDL-R protein levels in liver (LDL-R) | LDL-R Relative Expression (LDL-R) | further results
1 | CCCC(=O)[O-].[Na+] [NaBut, sodium butyrate, reference compound] | 2.185 and 1.975 and 1.35 and 1.426 | did not | significantly reduced | 315.036 and 240.601 and 72.6582 and 149.307 and 158.07 and 295.152 and 181.142 and 268.448 and 139.825 and 307.858 | 25.0597 and 7.5188 and 3.353 and 10.7501 and 8.319 and 26.3753 and 5.998 and 6.129 and 4.994 and 11.9789 | 10.7965 and 20.8384 and 26.2172 and 17.9684 and 39.3795 and 20.0501 and 6.707 and 17.9169 and 5.942 and 82.8937 | 829.356 and 329.574 and 100.604 and 316.531 and 316.14 and 663.15 and 236.324 and 566.315 and 510.612 and 977.48 | 159.148 and 69.3047 and 197.085 and 244.83 and 668.174 and 122.361 and 438.833 and 237.203 and 489.938 and 511.933 | 22.5564 and 10.0604 and 29.8614 and 43.9743 and 133.132 and 27.5912 and 84.5795 and 57.4282 and 142.549 and 96.6587 | 1122.81 and 480.662 and 1340.18 and 1250.3 and 2283.35 and 857.726 and 1975.97 and 1910.11 and 5505.51 and 4110.98 | 16.2907 and 5.589 and 14.3335 and 20.2044 and 75.358 and 13.1958 and 30.6448 and 26.2172 and 32.3431 and 60.8592 | significant increase | Neither SerBut nor NaBut influenced | significantly reduced | 872 and 974 and 870 and 998 and 868 and 1098 and 1088 and 922 and 790 and 882 | 44 and 40 and 42 and 36 and 38 | 284 and 358 and 282 and 372 and 310 and 334 and 344 and 346 and 348 and 320 | 35.16 and 44.74 and 39.32 and 26.1 and 40.12 and 26.24 and 30.52 and 29.96 and 35.92 and 47.84 | significantly suppressed | 0.9947 and 1.813 and 1.671 and 2.327 and 1.487 and 1.248 and 0.7546 and 0.5275 and 1.539 and 2.451 | Lipase (ApoE^–/– mice on an HFD [3]; plasma at 6 weeks, 150 mM in drinking water with HFD): 118 and 92 and 98 and 112 and 94 and 122 and 124 and 106
2 | CCCC(=O)OC[C@H](N)C(=O)O [SerBut, O-butyryl-L-serine] | 0.483 and 0.4832 and 0.4596 | significantly reduced | significantly reduced | 84.4967 and 264.868 and 232.342 and 96.7663 and 273.748 and 383.747 and 234.355 and 234.323 and 206.881 | 2.449 and 2.499 and 9.294 and 20.8231 and 9.359 and 5.0163 and 5.067 and 13.3899 and 12.3679 | 17.5571 and 39.2703 and 12.2741 and 5.622 and 12.2459 and 19.99 and 12.7788 and 6.124 and 10.5288 | 194.71 and 307.346 and 249.768 and 304.998 and 251.521 and 313.519 and 377.502 and 212.006 and 174.275 | 156.172 and 152.184 and 222.93 and 139.214 and 215.701 and 328.097 and 166.257 and 155.161 and 99.1918 | 32.4838 and 20.9108 and 28.1725 and 25.737 and 41.3845 and 93.7421 and 32.3588 and 29.2332 and 22.0426 | 1030.73 and 928.206 and 1219.99 and 1078.62 and 1098.57 and 1777.3 and 1018.75 and 756.69 and 848.641 | 16.2419 and 24.3959 and 22.048 and 17.548 and 21.3193 and 22.8021 and 17.8532 and 22.4871 and 13.4705 | no effect | Neither SerBut nor NaBut influenced | significantly reduced | 948 and 1048 and 1026 and 1018 and 1032 and 880 and 848 and 784 and 1074 and 722 and 776 and 780 and 800 and 768 and 1080 and 736 and 882 | 38 and 52 and 46 and 44 and 48 and 54 and 56 and 42 | 320 and 324 and 382 and 332 and 336 and 378 and 454 and 290 and 460 and 258 and 354 and 282 and 292 and 318 and 416 and 268 and 238 | 30.92 and 18.78 and 25.96 and 23.5 and 26.22 and 26.76 and 26.18 and 26.36 and 22.68 | significantly suppressed | 1.543 and 1.468 and 1.422 and 1.743 and 2.24 and 1.846 and 1.092 and 1.104 and 0.9748 | relative concentration of free butyrate on storage ([1]; FBS-supplemented complete media, 1 month at 37°C): did not change; Butyrate Release by LCMS-MS (free butyrate) ([1]; aged: 37°C in FBS-supplemented media for 1 month, listed as Aged SerBut): 0.457 and 0.4771 and 0.4543 and 0.3155 and 0.3079; share of sample that was free butyrate ([1]; at the time of measurement): approximately 10%; CD11b^+Ly6C^hi monocytes and CD4^+ T cells in the aorta (ApoE^–/– mice on an HFD [2]; 6 weeks, compared to water-treated controls): significantly reduced; ratio of HDL to total cholesterol (ApoE^–/– mice on an HFD [3]; 6 weeks, compared with NaBut treatment): significantly increased; plasma ALT and AST (ApoE^–/– mice on an HFD [3]; 6 weeks, compared with both water control and NaBut groups): significantly reduced
